According to publication PMC3469775 (Journal of medicinal chemistry, 2012):

Biological target: T1, human placental aromatase (Homo sapiens, UniProt P11511)
T1 sequence (P11511 1-503): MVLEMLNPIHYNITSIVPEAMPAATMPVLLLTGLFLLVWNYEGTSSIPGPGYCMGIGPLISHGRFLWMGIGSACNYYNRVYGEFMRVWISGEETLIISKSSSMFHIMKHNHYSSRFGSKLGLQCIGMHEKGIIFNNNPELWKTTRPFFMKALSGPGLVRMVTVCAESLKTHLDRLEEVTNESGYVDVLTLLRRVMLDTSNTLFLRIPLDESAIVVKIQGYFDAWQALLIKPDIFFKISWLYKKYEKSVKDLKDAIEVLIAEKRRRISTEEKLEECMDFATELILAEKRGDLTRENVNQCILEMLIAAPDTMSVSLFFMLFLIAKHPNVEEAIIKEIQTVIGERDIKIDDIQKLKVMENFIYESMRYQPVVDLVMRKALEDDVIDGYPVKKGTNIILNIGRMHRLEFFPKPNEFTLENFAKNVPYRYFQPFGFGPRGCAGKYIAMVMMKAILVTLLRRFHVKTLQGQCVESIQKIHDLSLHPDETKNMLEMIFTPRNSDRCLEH
Experiment: Inhibition of purified human placental aromatase
Assay type: biochemical
Settings: for fold less potent than the AIs (IC50): compared with the AIs; for IC50 (in words): purified placental aromatase

Row | Compound | fold less potent than the AIs (IC50) | IC50 (in words) | inhibition at 300 µM (read-out: inhibition of the enzyme activity) [%]
1 | CO[C@@H]1C[C@@H]2[C@H](CC[C@]3(C)C(=O)CC[C@@H]23)[C@@]2(C)C=CC(=O)C=C12 [Compound 2, (6R,8R,9S,10R,13S,14S)-6-Methoxy-10,13-dimethyl-7,8,9,10,11,12,13,14,15,16-decahydro-3H-cyclopenta[a]-phenanthrene-3,17(6H)-dione] | about 1000 fold | several micromolar | –
2 | CCO[C@@H]1C[C@@H]2[C@H](CC[C@]3(C)C(=O)CC[C@@H]23)[C@@]2(C)C=CC(=O)C=C12 [Compound 3, (6R,8R,9S,10R,13S,14S)-6-Ethoxy-10,13-dimethyl-7,8,9,10,11,12,13,14,15,16-decahydro-3H-cyclopenta[a]-phenanthrene-3,17(6H)-dione] | about 1000 fold | several micromolar | –
3 | CC#CCO[C@@H]1C[C@@H]2[C@H](CC[C@]3(C)C(=O)CC[C@@H]23)[C@@]2(C)C=CC(=O)C=C12 [Compound 4, (6R,8R,9S,10R,13S,14S)-6-(But-2-ynyloxy)-10,13-dimethyl-7,8,9,10,11,12,13,14,15,16-decahydro-3H-cyclopenta[a]-phenanthrene-3,17(6H)-dione] | – | – | 93
